Source: ChEMBL document CHEMBL1201862, “PubChem BioAssay data set” (2004)
Activity calls are given as the source filed them.

What was measured:
BJ [1] = test: cytotoxicity toward BJ-TERT fibroblasts, dose response, cell-based, RAS-independent, luminescence (AID 1933); format: functional; conditions: Homo sapiens
BJ [2] = test: cells; format: functional, cell-based; conditions: Homo sapiens
[3] = cytotoxicity toward DRD oncogenic fibroblasts, dose response, cell-based, non-viral oncogenic, luminescence (AID 1934); format: functional; conditions: Homo sapiens
BJ [4] = test: cytotoxicity toward BJ-TERT-LT-ST fibroblasts, dose response, cell-based, RAS-independent, luminescence (AID 1935); format: functional; conditions: Homo sapiens;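 further: BJ fibroblasts immortalized with TERT plus LT and ST oncogenes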
BJ [5] = test: cytotoxicity toward Ras-transformed BJeLR fibroblasts, dose response, cell-based, alamar blue fluorescence, cherrypicked samples (AID 2631); format: functional; conditions: Homo sapiens;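 further: confirmatory dose-response assay in RAS-dependent BJ fibroblasts engineered with TERT, LT and ST, with cytotoxicity read by fluorescence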
[6] = Luminescence Cell-Based Dose Retest to Confirm Inhibitors of Cancer Stem Cells. [Related pubchem assays (depositor defined):AID2717, AID2721]; format: functional; conditions: Homo sapiens
H4 = test: Luminescence Cell-Based Dose Response HTS to Identify Activators of 5'UTR Stem-Loop Driven Prion Protein mRNA Translation in H4 Neuroglioblastoma Cells. [Related pubchem assays: 1829 (Project Summary), 1814 (Primary HTS)]; format: functional; conditions: Homo sapiens
[7] = Luminescence Cell-Based Dose Response HTS to Identify Activators of Luciferase Translation or Activity in H4 […] Cells. [Related pubchem assays: 1829 (Project Summary), 1814 (Primary HTS)]; format: functional
INS1 = test: beta cell apoptosis inhibitors, cytokine rescue, dose response, luminescence, retest (AID 449756); format: functional, cell-based; conditions: Rattus norvegicus;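 further: cell death triggered by IL-1 beta plus TNF-alpha plus IFN-gamma mixture; protective hits raise ATP signal compared with cytokine alone wells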
[8] = Luminescence Cell-Based Dose Confirmation HTS to Identify Activators of 5'UTR Stem-Loop Driven Alpha-Synuclein mRNA Translation in H4 Neuroglioblastoma Cells. [Related pubchem assays: 1829 (Project Summary), 1814 (Primary HTS)]; format: functional
[9] = Shn3 3'UTR reporter inhibitors, dose response, cell-based, Clone20 osteoblasts, firefly luciferase, cherry-picked (AID 624132); format: functional;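 further: firefly luciferase luminescence from reporter carrying the Shn3 3'UTR in osteoblasts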
[10] = molecular target: T1, Microphthalmia-associated transcription factor (Homo sapiens, UniProt O75030); test: TRPM1 promoter luciferase signal decrease, dose response, MITF inhibitor project, cell-based, SK-MEL-5, cherry-picked, set 3 (AID 493073); format: functional
T1 sequence (O75030 whole entry): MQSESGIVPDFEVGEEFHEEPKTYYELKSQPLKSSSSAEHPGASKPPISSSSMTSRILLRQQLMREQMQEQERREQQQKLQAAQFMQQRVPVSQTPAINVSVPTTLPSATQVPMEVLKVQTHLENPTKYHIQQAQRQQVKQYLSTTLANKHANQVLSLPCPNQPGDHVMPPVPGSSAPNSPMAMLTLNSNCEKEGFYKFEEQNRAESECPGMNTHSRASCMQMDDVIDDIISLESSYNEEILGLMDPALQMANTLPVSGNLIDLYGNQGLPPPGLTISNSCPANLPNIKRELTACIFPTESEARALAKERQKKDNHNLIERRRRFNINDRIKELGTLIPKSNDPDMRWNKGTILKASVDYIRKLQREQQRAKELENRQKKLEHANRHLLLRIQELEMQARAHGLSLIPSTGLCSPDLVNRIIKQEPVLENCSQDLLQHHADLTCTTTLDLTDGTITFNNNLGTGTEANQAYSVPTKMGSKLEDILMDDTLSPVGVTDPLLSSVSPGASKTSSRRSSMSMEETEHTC

[11] = molecular target: T2, E3 ubiquitin-protein ligase XIAP (Homo sapiens, UniProt P98170); test: Counter Screen using XIAP-Bir3 for Chemical Antagonists of Bir1/2 domains of IAP-family anti-apoptotic proteins. [Related pubchem assays (depositor defined):AID1018, AID1449, AID1514, AID1638, AID1749, AID1750, AID488957, AID488963]
T2 sequence (P98170 whole entry): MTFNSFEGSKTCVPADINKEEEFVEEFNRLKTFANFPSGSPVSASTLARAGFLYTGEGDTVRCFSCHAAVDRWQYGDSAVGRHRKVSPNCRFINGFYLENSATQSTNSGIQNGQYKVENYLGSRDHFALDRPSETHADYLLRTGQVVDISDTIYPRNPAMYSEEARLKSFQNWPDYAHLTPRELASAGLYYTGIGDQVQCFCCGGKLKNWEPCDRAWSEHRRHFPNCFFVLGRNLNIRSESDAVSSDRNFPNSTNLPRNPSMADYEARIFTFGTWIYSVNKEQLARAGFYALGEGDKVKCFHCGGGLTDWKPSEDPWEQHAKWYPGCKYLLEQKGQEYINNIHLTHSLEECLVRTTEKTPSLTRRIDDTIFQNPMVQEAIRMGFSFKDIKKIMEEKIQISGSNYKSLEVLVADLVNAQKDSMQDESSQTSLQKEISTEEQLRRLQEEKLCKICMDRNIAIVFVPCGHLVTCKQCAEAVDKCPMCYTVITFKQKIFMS

[12] = molecular target: T2, E3 ubiquitin-protein ligase XIAP; test: XIAP antagonists, biochemical, IAP family, fluorescence polarization (AID 1018); format: functional
Coagulation factor XII = molecular target: T3, Coagulation factor XII (Homo sapiens, UniProt P00748); format: functional;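 further: activated factor XIIa alpha cleaving a fluorogenic AMC peptide substrate; inhibitor potency from loss of enzyme activity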
T3 sequence (P00748 whole entry): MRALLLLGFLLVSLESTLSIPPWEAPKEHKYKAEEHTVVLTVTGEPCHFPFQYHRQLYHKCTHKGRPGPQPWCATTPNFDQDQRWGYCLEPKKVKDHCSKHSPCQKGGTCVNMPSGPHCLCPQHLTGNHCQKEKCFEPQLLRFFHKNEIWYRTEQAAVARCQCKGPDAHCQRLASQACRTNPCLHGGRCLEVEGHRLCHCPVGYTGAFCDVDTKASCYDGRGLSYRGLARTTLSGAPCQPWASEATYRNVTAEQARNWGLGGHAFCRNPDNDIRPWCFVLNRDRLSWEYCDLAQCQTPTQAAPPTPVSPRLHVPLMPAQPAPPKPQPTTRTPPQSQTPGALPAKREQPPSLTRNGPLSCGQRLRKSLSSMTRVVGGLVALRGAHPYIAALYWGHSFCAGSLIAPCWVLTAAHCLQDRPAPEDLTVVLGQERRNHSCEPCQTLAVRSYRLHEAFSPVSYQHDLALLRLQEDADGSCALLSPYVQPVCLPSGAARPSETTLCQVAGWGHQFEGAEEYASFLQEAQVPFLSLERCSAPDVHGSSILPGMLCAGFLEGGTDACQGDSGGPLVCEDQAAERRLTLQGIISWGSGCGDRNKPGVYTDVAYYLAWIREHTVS

[13] = molecular target: DNA (cytosine-5)-methyltransferase 1 (Homo sapiens, UniProt P26358); test: DNMT1 methyltransferase inhibitors, confirmation, biochemical, fluorescent molecular beacon (AID 602386); format: functional
DNA (cytosine-5)-methyltransferase 1, sequence (P26358 whole entry): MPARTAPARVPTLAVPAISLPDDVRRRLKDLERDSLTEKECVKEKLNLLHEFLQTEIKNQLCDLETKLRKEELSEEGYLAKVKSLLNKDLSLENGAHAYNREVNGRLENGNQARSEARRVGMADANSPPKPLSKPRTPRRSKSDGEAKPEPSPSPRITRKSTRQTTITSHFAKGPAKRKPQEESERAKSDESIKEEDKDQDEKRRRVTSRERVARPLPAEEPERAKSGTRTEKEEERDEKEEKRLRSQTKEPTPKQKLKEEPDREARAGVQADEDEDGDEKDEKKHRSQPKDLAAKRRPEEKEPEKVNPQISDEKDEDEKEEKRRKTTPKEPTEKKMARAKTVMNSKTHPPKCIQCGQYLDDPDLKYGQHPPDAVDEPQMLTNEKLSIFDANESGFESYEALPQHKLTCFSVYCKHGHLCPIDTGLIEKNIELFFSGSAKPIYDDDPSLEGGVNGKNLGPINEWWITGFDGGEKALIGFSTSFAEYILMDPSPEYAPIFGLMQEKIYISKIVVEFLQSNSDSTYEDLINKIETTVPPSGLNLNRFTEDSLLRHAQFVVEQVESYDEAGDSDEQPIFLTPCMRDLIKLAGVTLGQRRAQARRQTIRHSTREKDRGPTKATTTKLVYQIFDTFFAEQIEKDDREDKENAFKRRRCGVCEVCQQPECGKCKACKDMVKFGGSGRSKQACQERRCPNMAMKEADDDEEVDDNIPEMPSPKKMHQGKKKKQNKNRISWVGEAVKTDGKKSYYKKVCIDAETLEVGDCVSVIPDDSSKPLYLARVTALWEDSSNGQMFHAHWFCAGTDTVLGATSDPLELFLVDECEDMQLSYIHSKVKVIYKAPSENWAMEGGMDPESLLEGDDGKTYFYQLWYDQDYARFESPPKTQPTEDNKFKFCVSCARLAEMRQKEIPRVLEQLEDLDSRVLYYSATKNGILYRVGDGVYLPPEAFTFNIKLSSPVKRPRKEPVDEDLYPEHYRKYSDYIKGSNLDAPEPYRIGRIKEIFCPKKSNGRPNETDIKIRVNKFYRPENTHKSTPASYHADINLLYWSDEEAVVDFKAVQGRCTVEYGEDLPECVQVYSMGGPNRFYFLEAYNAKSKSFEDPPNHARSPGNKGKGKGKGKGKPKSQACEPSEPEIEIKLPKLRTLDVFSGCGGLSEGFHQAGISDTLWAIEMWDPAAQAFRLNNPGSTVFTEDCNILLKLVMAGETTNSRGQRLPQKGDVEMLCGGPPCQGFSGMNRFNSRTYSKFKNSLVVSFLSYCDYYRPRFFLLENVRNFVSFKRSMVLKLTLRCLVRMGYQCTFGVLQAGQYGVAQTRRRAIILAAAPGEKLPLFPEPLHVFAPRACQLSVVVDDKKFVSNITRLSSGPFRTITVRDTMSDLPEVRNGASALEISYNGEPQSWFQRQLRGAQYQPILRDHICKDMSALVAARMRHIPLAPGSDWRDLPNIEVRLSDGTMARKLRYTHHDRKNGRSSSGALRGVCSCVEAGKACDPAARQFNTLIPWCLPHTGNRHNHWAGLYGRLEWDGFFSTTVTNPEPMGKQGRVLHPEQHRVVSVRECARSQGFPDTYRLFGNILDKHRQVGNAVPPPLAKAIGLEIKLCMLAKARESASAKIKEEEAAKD

Cytochrome P450 3A4 = Cytochrome P450 3A4 (Homo sapiens, UniProt P08684);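 further: CYP3A4 tested as one member of a cytochrome P450 panel screen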
Cytochrome P450 3A4, sequence (P08684 whole entry): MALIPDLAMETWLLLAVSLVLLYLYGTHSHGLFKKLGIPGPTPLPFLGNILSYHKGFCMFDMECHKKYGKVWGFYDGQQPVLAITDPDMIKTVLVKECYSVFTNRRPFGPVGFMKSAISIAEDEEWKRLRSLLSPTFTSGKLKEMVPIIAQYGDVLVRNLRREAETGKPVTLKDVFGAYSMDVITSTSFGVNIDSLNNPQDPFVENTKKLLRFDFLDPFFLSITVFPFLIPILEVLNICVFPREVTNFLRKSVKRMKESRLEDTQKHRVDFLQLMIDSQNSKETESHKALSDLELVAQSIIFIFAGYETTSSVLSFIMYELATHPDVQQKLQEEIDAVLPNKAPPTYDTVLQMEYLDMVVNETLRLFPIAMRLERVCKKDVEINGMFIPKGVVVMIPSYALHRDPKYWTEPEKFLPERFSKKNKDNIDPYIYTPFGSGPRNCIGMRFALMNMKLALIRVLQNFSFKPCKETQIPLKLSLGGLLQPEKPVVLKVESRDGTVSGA

Cytochrome P450 1A2 = molecular target: T4, Cytochrome P450 1A2 (Homo sapiens, UniProt P05177);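 further: PubChem cytochrome P450 panel assay, CYP1A2 panel member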
T4 sequence (P05177 whole entry): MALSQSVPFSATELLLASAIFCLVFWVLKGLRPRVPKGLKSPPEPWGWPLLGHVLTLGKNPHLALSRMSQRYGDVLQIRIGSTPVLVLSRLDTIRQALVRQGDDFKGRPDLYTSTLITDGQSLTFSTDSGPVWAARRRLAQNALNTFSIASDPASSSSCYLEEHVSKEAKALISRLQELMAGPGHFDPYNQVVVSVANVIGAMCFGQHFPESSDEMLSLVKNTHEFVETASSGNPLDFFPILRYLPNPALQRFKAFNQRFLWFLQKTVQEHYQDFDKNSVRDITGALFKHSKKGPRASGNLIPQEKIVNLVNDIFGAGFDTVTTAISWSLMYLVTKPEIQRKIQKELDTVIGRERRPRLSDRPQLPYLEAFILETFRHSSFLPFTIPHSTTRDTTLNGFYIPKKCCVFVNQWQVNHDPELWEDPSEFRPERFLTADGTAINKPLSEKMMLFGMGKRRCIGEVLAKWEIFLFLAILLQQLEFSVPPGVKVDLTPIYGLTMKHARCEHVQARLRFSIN

Cytochrome P450 2D6 = Cytochrome P450 2D6 (Homo sapiens, UniProt P10635);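 further: CYP2D6 member of a cytochrome P450 panel assay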
Cytochrome P450 2D6, sequence (P10635 whole entry): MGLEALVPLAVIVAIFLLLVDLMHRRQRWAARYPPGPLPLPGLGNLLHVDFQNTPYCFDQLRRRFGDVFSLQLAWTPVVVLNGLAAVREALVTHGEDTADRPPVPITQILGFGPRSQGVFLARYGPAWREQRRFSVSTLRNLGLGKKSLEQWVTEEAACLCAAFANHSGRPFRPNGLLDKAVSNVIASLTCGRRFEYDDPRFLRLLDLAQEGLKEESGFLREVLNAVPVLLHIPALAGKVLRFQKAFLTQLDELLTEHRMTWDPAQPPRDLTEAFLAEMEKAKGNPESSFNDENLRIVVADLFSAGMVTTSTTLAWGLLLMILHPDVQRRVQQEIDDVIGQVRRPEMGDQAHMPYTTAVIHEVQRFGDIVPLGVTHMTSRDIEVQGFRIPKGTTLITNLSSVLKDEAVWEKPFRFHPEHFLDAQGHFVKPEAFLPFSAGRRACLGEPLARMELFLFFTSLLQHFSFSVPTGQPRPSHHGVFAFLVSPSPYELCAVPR

[14] = molecular target: 72 kDa type IV collagenase (Homo sapiens, UniProt P08253); test: Dose Response validation of uHTS RPN11 inhibitor hits using a MMP-2 Fluorescence assay.; format: functional
72 kDa type IV collagenase, sequence (P08253 whole entry): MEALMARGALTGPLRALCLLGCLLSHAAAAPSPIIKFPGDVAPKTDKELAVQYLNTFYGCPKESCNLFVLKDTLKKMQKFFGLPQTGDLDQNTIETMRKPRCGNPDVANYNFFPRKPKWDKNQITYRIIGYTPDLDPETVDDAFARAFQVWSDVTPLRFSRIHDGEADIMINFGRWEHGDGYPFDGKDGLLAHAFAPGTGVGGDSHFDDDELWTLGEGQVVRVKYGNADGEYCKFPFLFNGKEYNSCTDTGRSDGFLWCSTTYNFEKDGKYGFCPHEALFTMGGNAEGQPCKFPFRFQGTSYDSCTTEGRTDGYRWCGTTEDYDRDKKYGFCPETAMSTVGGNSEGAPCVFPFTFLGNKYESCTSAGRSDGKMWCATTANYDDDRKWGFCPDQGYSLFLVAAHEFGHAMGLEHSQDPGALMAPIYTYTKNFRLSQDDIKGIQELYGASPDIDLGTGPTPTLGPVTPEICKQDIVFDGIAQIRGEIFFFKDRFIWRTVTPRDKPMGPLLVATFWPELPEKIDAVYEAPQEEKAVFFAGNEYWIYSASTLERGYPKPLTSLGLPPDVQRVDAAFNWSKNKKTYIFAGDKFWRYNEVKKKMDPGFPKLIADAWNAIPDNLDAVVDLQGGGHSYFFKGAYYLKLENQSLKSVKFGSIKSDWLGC

[15] = molecular target: 26S proteasome non-ATPase regulatory subunit 14 (Homo sapiens, UniProt O00487); test: inhibition of proteasome subunit RPN11 – biochemical, fluorescence polarization, uHTS hits, confirmation (AID 602368); format: functional
26S proteasome non-ATPase regulatory subunit 14, sequence (O00487 whole entry): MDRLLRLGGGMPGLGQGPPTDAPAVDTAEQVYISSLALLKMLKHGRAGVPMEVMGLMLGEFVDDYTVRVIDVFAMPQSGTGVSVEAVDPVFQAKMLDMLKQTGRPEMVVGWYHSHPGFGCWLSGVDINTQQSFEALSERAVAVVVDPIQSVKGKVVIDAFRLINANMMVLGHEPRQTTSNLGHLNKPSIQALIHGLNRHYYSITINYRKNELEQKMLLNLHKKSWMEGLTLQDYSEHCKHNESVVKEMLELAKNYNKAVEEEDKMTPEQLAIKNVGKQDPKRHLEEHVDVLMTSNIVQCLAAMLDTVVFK

Prothrombin = Prothrombin (Bos taurus, UniProt P00735); test: thrombin inhibition, dose response, biochemical, fluorescence polarization, uHTS hits (AID 602369); format: functional
[16] = cytotoxicity toward NIH3T3 fibroblasts, dose response, counter-screen, cell-based, ATP luminescence, mouse fibroblasts (AID 2010); format: functional;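 further: cells exposed to compound for about 90 hours before reading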
[17] = inhibitors of intracellular T. cruzi replication, confirmation, NIH3T3 host cells, beta-gal luminescence (AID 2044); format: functional, cell-based;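 further: intracellular parasites grown in NIH/3T3 mouse fibroblasts as host cells; luminescent beta-galactosidase reporter signal from transgenic T. cruzi replicating inside host cells; inhibitors lower the luminescence signal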

In the case of `CC(C)C(=O)Nc1ccc(C(=O)NCc2cccnc2)cc1`, the EC50 (BJ [1]) was > 150 µM (not active), the EC50 (BJ [2]) was 3.86 µM (active) and the EC50 [3] was > 150 µM (not active). For the same molecule, the EC50 (BJ [4]) was 19.4 µM (inconclusive) and the EC50 (BJ [5]) was 18.9 µM (active).
In the case of `CCN(CC)Cc1c(O)ccc2c1O/C(=C\C=C\c1ccccc1)C2=O`, the AC50 [6] was 16.6 µM (active), the EC50 (BJ [1]) was > 150 µM (not active) and the EC50 (H4) was > 120 µM (not active). For the same molecule, the EC50 (BJ [2]) was > 150 µM (not active), the EC50 [3] was 55.7 µM (active) and the EC50 [7] was 29.6 µM (active). The EC50 (BJ [4]) was > 150 µM (inconclusive), the AC50 (INS1) was > 120 µM (inactive) and the EC50 [8] was 16.5 µM (active). The EC50 (BJ [5]) was > 133 µM (inactive), the AC50 [9] was 1.96 µM (active) and the AC50 [10] was 47.6 µM (active).
In the case of `Cc1cc(C)cc(NC(=O)Nc2ccc3c(c2)N(C)C(=O)CS3)c1`, the IC50 [11] was > 100 µM (inactive) and the IC50 [12] was > 100 µM (not active).
In the case of `CN1CCN(c2ccc(NC(=S)NC(=O)c3cccc4ccccc34)cc2)CC1`, the AC50 [10] was 9 µM (active).
In the case of `O=C(NCc1cccnc1)c1ccc(NC(=O)c2ccc([N+](=O)[O-])cc2)cc1`, the EC50 (BJ [1]) was > 150 µM (not active), the EC50 (BJ [2]) was 15.9 µM (inconclusive) and the EC50 [3] was > 150 µM (not active). The EC50 (BJ [4]) was > 150 µM (not active), the AC50 (INS1) was < 0.195 µM (active) and the EC50 (BJ [5]) was > 66.7 µM (inactive).
With `Cc1cc(Cl)ccc1OCC(=O)Nc1ccccc1CO` the IC50 [11] was > 100 µM (inactive) and the IC50 [12] was > 100 µM (not active).
In the case of `C=C(C)C(=O)Nc1cccc(C2=NOC3(C2)C[C@H](C(N)=O)N(C(=O)CC)C3)c1` (stereo not given in full), the IC50 (Coagulation factor XII) was > 50 µM (inactive) and the IC50 [13] was 4.32 µM (active).
With `C#CCN[C@@H](C)Cc1ccccc1` the AC50 (Cytochrome P450 3A4) was “inconclusive”, the AC50 (Cytochrome P450 1A2) was 15.8 µM (inconclusive) and the AC50 (Cytochrome P450 2D6) was 25.1 µM (inconclusive).
In the case of `CCOC(=O)NC(=O)/C(C#N)=C/c1ccc(N(C)C)cc1`, the IC50 [14] was > 100 µM (inactive), the IC50 [15] was 14.7 µM (active) and the IC50 (Prothrombin) was 25.6 µM (active).
In the case of `CN(C)CCCn1c(-c2ccccc2)nc(=S)c2c1CCCC2`, the EC50 [16] was > 60 µM (not active), the IC50 [11] was > 100 µM (inactive) and the IC50 [12] was > 100 µM (not active). For the same molecule, the EC50 [17] was 0.697 µM (active).
